Source: patent US4451448A, “1-Substituted tricyclic quinazolinones useful as tranquilizers” (Sandoz, Inc., priority 1982, dated 1984)

Test system: isolated calf brain benzodiazepine receptors
Test: Flunitrazepam Receptor Binding Assay (FBA TEST No. 1), displacement of 3H-flunitrazepam
Conditions: compound at final concentration of 1×10^-6 M; calf caudate tissue; 1 µM

Row | SMILES | percent specifically bound 3H-flunitrazepam compared to control
1 | O=c1c2cc(Cl)ccc2nc2n1CCN2C1CCCC1 [Example 2, 7-chloro-1-cyclopentyl-2,3-dihydro-imidazo[2,1-b]quinazolin-5(1H)-one] | 19 % of control
2 | C=CCN1CCn2c1nc1ccc(Cl)cc1c2=O [Example 1, 1-allyl-7-chloro-2,3-dihydro-imidazo[2,1-b]quinazolin-5(1H)-one] | 13 % of control
